# From patent US8858952B2, “Methods and materials for generating T cells” (Mayo Foundation for Medical Education and Research, priority 2009, dated 2014)
# Entries after “also recorded” stand apart in the source; their conditions may differ. Where no end group is shown, it is not given here. [ ]: non-standard residue; d: D form. Ava = NCCCCC(=O)O
# Legend:
# bone marrow-derived DC = assay: Cytokine and chemokine multiplex analysis of DC culture supernatant; assay type: cell-based; conditions: DC culture media 48 hours after pulsing, versus native FR74
# Experimental: FIG. 14. […] Shown are the concentrations of cytokines within DC culture media 48 hours after pulsing with the indicated polypeptides. Each bar is the mean (±s.e.m.) of duplicates samples. A repeat experiment yielded similar results.
# FIG. 15. […] Shown are the concentrations of chemokines within DC culture media 48 hours after pulsing with the indicated polypeptides. Each bar is the mean (±s.e.m.) of duplicate samples. A repeat experiment yielded similar results.
# FIG. 24. Modified polypeptides induce different release of IL-6 and IL-12p70. Shown are the concentrations of IL-6 and IL-12p70 within DC culture media 48 hours after pulsing with the indicated polypeptides. Each bar is the mean (±s.e.m.) of duplicate samples. A repeat experiment yielded similar results. Values associate with each bar are the actual mean concentrations measured.
# Another potential reason for the enhanced T cell activation is that epitope nesting results in enhancement of cytokines that facilitate the induction of T cell activation. […]
# This hypothesis is tested using antibody neutralization. […] Cytokine levels in the sera are quantitated by analyzing 100 μL of each well on a Bio-Plex using Bio-Plex Manager software (ver.4.). […] Both the DC and the T cells can be assessed for expression of the receptors using flow cytometry. […]
# Foxp3^+ T cells = assay: Flow cytometry of CD4 T cell lines for FoxP3 expression; assay type: cell-based, FVB/N mice; conditions: FIG. 31
# Excerpt: FIG. 31. […] Flow cytometry dot plots of naïve splenocytes, FR74-specific, FR74.4-specific CD4 T cell lines evaluating for FoxP3 expression. Quadrants set at isotype signal, and the lower right quadrant is percent of total cells in lymphocyte gate. T cells were derived from FVB/N mice.
substance,measurement,setting,value
FR74.4: dual conjugated polypeptide: FR74 nested between Ii-key and DC3 (Ac-LRMK[Ava]KDISYLYRFNWNHCGRARRFYPSYHSTPQRP),cytokine release by DC,bone marrow-derived DC; FIG. 14,"selectively induces expression of IL-1α, IL-6, IL-12p70, IL-13 and TNF-α; also recorded: enhanced the release of IL-1α, IL-6, and IL-12p70"
same,chemokine levels produced by DC,bone marrow-derived DC; FIG. 15,"significantly higher levels of the T cell attracting chemokines, CCL7 (MCP-3), CCL1 (KC) CXCL10 (IP-10); also recorded: elevated levels of CCL7, CXCL1, and CXCL10"
same,expansion of Foxp3+ T cells,Foxp3^+ T cells,blocks expansion of Foxp3^+ T cells
